The values below come from publication PMC4503722, “Novel Phenotypic Outcomes Identified for a Public Collection of Approved Drugs from a Publicly Accessible Panel of Assays” (PLoS ONE, 2015).

The subject of assay [1] is endothelial tube formation in co-cultures of ECFCs and ADSCs treated with VEGF. Nature of the assay: cells. The format is cell-based, human.
Assay [2] deals with nuclear β-catenin in C2C12 cells. The assay can be described thus: cells. The format is cell-based. Particulars: assay number 5; concentration response.
Assay [3] deals with alkaline phosphatase (ALP) activity in C2C12 cells. Format: cell-based. The settings on record: assay number 6; concentration response.
The subject of another assay is INS-1E cells. Nature of the assay: cells. The format is cell-based, rat. Particulars: assay number 8; 5 mM glucose.
The next assay has as its system HeLa cells. The assay can be described thus: cells. The settings on record: for Hela CellCycMod PI 2N IC50/EC50: assay number 14; for Hela CellCycMod PI S Phase IC50/EC50: assay number 15; for Hela CellCycMod PI 4N IC50/EC50: assay number 16; for Hela CellCycMod PI MI IC50/EC50: assay number 17; for Hela CellCycMod PI Cell Number IC50/EC50: assay number 18. The format is cell-based.

A further assay deals with DLD-1. The assay can be described thus: cells. The format is cell-based. Particulars: assay number 23.
The subject of a further assay is SW480. Nature of the assay: cells. The settings on record: assay number 24. Format: cell-based.
For assay [4], the system named is HCT116 cells treated with a GSK3β inhibitor. Nature of the assay: cells. Format: cell-based. The settings on record: assay number 26; GSK3b inhibitor pretreated.
The subject of a further assay is Colo320. The assay can be described thus: cells. The format is cell-based. The settings on record: assay number 27.
The next assay concerns HT-29. Nature of the assay: cells. Format: cell-based. Particulars: assay number 28.
The test system of another assay is RKO. Nature of the assay: cells. The format is cell-based. Particulars: assay number 29.
A further assay has as its system SNU-C1. The assay can be described thus: cells. The format is cell-based. The settings on record: assay number 30.
A further assay deals with T1, hp70S6K1 (RPS6KB1) (Homo sapiens, UniProt P23443).
T1 construct: purchased Cerep (LANCE kinase assay platform, contract assay)
T1 sequence (P23443 whole entry): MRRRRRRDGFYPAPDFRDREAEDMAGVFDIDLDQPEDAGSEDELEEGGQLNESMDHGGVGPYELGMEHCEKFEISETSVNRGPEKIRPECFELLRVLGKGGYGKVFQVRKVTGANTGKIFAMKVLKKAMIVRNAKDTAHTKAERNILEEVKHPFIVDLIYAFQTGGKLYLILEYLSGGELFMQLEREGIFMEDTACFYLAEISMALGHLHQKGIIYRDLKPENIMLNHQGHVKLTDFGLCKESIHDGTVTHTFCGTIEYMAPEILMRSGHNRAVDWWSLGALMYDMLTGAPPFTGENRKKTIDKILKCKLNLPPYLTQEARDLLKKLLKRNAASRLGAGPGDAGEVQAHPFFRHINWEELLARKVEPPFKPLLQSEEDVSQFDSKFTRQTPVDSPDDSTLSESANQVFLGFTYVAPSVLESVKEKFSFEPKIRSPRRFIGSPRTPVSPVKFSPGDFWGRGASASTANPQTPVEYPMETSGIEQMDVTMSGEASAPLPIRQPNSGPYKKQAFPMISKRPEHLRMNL
The assay can be described thus: Cerep LANCE kinase assay hp70S6K1 (S1 assay 31). The format is biochemical. The settings on record: assay number 31. (In general: In TR-FRET formats the signal depends on donor and acceptor labels being close together.)

A further assay concerns the target T2, hKDR (Homo sapiens, UniProt P35968).
T2 construct: purchased Cerep (LANCE kinase assay platform, contract assay)
The assay can be described thus: Cerep LANCE kinase assay hKDR (S1 assay 32). The format is biochemical. The settings on record: assay number 32.

The target in another assay is T3, hJAK2 (Homo sapiens, UniProt O60674).
T3 construct: purchased Cerep (LANCE kinase assay platform, contract assay)
T3 sequence (O60674 whole entry): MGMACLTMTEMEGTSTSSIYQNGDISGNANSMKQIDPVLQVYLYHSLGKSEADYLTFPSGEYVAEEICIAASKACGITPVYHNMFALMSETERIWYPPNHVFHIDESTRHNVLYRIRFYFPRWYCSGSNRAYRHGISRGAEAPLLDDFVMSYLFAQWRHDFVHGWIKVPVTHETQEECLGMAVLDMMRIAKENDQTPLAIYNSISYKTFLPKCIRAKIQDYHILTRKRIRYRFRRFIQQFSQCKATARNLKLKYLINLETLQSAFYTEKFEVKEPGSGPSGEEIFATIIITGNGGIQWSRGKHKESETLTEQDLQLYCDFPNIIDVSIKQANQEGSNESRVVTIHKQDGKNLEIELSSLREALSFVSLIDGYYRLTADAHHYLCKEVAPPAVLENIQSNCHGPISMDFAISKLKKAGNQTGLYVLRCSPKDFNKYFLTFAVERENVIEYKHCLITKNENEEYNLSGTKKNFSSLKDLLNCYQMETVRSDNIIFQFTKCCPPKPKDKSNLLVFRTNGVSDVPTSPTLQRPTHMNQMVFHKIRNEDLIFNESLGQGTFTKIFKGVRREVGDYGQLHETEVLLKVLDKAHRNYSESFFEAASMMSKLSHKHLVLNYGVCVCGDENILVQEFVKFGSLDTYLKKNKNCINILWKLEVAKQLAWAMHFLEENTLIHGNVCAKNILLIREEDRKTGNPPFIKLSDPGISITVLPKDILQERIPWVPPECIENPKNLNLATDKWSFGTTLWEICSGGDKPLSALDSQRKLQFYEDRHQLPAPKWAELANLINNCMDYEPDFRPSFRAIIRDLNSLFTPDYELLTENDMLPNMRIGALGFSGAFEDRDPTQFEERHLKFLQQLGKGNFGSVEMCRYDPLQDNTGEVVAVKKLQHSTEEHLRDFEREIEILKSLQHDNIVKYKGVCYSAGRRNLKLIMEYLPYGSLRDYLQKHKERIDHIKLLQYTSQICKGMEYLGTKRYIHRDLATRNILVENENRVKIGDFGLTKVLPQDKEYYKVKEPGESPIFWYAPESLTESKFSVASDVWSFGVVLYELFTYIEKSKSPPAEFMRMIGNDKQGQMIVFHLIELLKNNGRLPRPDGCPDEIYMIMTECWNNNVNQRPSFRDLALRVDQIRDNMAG
The assay can be described thus: Cerep LANCE kinase assay hJAK2 (S1 assay 33). The format is biochemical. Particulars: assay number 33.

The target in the next assay is T4, hGSK3b (Homo sapiens, UniProt P49841).
T4 construct: purchased Cerep (LANCE kinase assay platform, contract assay)
T4 sequence (P49841 whole entry): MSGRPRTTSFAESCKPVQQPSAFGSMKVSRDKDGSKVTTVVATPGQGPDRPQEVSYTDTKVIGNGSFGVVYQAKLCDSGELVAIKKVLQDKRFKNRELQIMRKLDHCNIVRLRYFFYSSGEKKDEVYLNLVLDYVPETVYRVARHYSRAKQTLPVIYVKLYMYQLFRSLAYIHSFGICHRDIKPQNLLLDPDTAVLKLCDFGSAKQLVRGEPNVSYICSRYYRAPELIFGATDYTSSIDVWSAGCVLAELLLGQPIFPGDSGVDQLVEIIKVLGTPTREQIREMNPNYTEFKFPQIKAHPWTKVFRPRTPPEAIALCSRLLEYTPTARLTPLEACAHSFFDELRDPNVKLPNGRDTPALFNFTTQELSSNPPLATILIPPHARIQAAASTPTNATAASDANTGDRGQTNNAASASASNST
The assay can be described thus: Cerep LANCE kinase assay hGSK3b (S1 assay 34). Format: biochemical. Particulars: assay number 34.

The next assay has as its target T5, hFLT3 (Homo sapiens, UniProt P36888).
T5 construct: purchased Cerep (LANCE kinase assay platform, contract assay)
The assay can be described thus: Cerep LANCE kinase assay hFLT3 (S1 assay 35). Particulars: assay number 35. The format is biochemical.

In assay [5] the test system is ECFC/ADSC co-culture cell nuclei number.
The test system of another assay is NCI-H716 cells. Nature of the assay: cells. Format: cell-based, Human. The settings on record: assay number 12.
A further assay concerns STC-1 cell line. The format is cell-based, mouse. Particulars: assay number 13.
In the next assay the test system is HCT116. Nature of the assay: cells. The format is cell-based. Particulars: assay number 25; basal.
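For 5mMGluc INS1E SecretionMod IC50/EC50 in this document: secreted insulin quantified by homogeneous immunoassay.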

T2 sequence (P35968 20-1356): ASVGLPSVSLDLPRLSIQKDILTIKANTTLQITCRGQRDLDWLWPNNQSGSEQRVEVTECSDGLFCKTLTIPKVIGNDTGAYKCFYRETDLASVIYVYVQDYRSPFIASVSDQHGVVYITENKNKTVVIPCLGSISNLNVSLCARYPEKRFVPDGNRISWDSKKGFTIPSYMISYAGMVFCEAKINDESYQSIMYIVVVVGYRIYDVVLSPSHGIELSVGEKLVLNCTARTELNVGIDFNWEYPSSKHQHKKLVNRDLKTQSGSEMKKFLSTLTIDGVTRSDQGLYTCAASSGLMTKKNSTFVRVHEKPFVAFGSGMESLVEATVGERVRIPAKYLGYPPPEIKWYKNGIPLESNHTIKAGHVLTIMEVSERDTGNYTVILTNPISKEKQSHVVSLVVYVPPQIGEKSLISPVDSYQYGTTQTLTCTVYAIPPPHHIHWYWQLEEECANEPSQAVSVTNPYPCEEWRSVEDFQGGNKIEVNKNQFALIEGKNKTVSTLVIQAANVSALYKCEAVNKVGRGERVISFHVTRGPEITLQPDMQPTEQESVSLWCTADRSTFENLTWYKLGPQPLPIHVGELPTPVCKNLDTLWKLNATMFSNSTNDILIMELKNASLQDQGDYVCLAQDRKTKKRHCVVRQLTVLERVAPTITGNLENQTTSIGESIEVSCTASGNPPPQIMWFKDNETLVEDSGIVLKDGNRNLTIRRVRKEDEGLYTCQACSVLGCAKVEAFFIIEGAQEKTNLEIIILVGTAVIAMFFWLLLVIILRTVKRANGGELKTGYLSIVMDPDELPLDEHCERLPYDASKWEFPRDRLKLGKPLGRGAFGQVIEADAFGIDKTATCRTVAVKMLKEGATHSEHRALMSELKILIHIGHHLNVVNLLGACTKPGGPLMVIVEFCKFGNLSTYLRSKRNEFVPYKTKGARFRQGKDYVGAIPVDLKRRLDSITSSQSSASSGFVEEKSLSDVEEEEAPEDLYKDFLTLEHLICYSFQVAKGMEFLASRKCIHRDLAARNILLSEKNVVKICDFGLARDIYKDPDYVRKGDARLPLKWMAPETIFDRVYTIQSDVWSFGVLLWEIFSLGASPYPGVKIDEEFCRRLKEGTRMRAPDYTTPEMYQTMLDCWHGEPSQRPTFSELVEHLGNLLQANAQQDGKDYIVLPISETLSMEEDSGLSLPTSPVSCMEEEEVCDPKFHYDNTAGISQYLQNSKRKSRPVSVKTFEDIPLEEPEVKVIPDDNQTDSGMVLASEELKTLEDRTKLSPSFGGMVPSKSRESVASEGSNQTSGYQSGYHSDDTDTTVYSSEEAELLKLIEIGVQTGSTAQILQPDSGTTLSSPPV
T5 sequence (P36888 27-993): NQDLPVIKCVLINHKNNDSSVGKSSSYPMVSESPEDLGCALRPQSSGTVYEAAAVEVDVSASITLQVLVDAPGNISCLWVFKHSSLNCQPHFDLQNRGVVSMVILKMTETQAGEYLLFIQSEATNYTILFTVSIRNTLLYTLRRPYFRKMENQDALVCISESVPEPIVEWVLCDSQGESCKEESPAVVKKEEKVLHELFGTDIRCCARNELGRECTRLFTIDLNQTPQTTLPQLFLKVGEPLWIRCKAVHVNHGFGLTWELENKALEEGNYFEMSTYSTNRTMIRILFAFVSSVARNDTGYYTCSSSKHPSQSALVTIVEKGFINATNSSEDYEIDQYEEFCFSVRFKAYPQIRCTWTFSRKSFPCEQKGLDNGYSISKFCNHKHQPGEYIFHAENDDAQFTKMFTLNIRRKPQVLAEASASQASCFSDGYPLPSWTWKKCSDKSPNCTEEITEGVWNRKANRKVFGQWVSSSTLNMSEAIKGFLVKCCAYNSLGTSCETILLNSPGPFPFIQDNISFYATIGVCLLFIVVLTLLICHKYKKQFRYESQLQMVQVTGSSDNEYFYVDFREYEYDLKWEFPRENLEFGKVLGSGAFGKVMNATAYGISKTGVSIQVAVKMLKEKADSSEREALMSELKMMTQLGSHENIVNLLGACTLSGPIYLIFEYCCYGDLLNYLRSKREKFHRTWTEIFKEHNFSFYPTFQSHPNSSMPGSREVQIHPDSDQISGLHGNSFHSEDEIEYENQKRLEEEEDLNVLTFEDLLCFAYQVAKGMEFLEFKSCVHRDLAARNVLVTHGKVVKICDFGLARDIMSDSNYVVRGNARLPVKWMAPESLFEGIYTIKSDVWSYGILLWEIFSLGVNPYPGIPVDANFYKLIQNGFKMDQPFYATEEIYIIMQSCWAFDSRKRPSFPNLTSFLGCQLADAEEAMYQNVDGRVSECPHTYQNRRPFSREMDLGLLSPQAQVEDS

`CC(=O)Oc1ccc(C2(c3ccc(OC(C)=O)cc3)Oc3ccccc3NC2=O)cc1` [NCGC00182998-01]: the “VEGF_ADSC\ECFC Angio CD31 TubeArea IC50/EC50” value in [1] amounted to 2.2736 µM. Moreover, the “WntCondMedia_bCatenin C2C12 IC50/EC50” value in assay [2] is reported as over 20 µM. Moreover, the “WntCondMedia_Alk Phos C2C12 IC50/EC50” value in assay [3] was 13.9611 µM. Further, in the assay with INS-1E cells, the “5mMGluc_INS1E SecretionMod IC50/EC50” value is recorded as over 33.33 µM. For the same molecule, in the assay with HeLa cells, the “Hela CellCycMod PI 2N IC50/EC50” value was over 10 µM, the “Hela CellCycMod PI S Phase IC50/EC50” value was over 10 µM, the “Hela CellCycMod PI 4N IC50/EC50” value is on record as over 10 µM and the “Hela CellCycMod PI MI IC50/EC50” value is reported as over 10 µM. Further, the “Hela CellCycMod PI Cell Number IC50/EC50” value with HeLa cells was 5.7532 µM. Further, the “Basal_Viability ATP DLD-1 IC50/EC50” value with DLD-1 amounted to 19.7291 µM. Moreover, the “Basal_Viability ATP SW480 IC50/EC50” value in the assay on SW480 turned out to be 9.1881 µM. The “GSK3b inh pretreated_Viability ATP HCT116 IC50/EC50” value in assay [4] was 3.2604 µM. For the same molecule, in the assay with Colo320, the “Basal_Viability ATP Colo 320 IC50/EC50” value is on record as over 20 µM. In addition, the “Basal_Viability ATP HT-29 IC50/EC50” value with HT-29 was over 20 µM. For the same molecule, the “Basal_Viability ATP RKO IC50/EC50” value in the assay with RKO is given as 9.2255 µM. Besides, the “Basal_Viability ATP SNU-C1 IC50/EC50” value with SNU-C1 is on record as over 20 µM. The “hp70S6K1 LANCE IC50/EC50” value at hp70S6K1 (RPS6KB1) is listed as over 20 µM. In addition, the “hKDR LANCE IC50/EC50” value at hKDR was over 20 µM. For the same molecule, the “hJAK2 LANCE IC50/EC50” value on hJAK2 is on record as over 20 µM. Further, the “hGSK3b LANCE IC50/EC50” value at hGSK3b is reported as over 20 µM. In addition, the “hFLT3 LANCE IC50/EC50” value at hFLT3 was over 20 µM. In addition, the “VEGF_ADSC\ECFC Angio Hoechst NucArea IC50/EC50” value in assay [5] was over 10 µM.

`c1ccc2c(c1)Sc1ccccc1N2CC1CN2CCC1CC2` (stereo not shown) [NCGC00183046-03]: in assay [1], the “VEGF_ADSC\ECFC Angio CD31 TubeArea IC50/EC50” value is 9.4389 µM. Besides, the “WntCondMedia_bCatenin C2C12 IC50/EC50” value in [2] is over 20 µM. The “WntCondMedia_Alk Phos C2C12 IC50/EC50” value in [3] is over 20 µM. Further, in the assay with NCI-H716 cells, the “hNCI-H716 GLP1 Secretion IC50/EC50” value is reported as over 40 µM. Also, the “mSTC-1 GLP1 Secretion IC50/EC50” value in the assay on STC-1 cell line is on record as over 40 µM. In addition, the “Basal_Viability ATP DLD-1 IC50/EC50” value in the assay on DLD-1 (basal) is given as over 20 µM. Moreover, the “Basal_Viability ATP SW480 IC50/EC50” value with SW480 (basal) is listed as 5.431 µM. The “Basal_Viability ATP HCT116 IC50/EC50” value in the assay with HCT116 is over 20 µM. Besides, the “GSK3b inh pretreated_Viability ATP HCT116 IC50/EC50” value in assay [4] was over 20 µM. Besides, the “Basal_Viability ATP Colo 320 IC50/EC50” value in the assay on Colo320 (basal) is over 20 µM. In the assay on HT-29 (basal), the “Basal_Viability ATP HT-29 IC50/EC50” value is listed as over 20 µM. Besides, the “Basal_Viability ATP RKO IC50/EC50” value in the assay on RKO (basal) is 8.4586 µM. In the assay with SNU-C1 (basal), the “Basal_Viability ATP SNU-C1 IC50/EC50” value is given as over 20 µM. Moreover, the “VEGF_ADSC\ECFC Angio Hoechst NucArea IC50/EC50” value in [5] is over 10 µM.

Consider `Cc1nc2ccc(CN(C)c3ccc(C(=O)N[C@@H](CCC(=O)O)C(=O)O)s3)cc2c(=O)[nH]1` [NCGC00229704-01], for which the “VEGF_ADSC\ECFC Angio CD31 TubeArea IC50/EC50” value in assay [1] amounted to 0.3544 µM. Moreover, the “WntCondMedia_bCatenin C2C12 IC50/EC50” value in [2] is 0.0127 µM. In addition, the “WntCondMedia_Alk Phos C2C12 IC50/EC50” value in [3] was 0.0042 µM. Further, in the assay on HeLa cells, the “Hela CellCycMod PI 2N IC50/EC50” value is given as over 10 µM, the “Hela CellCycMod PI 4N IC50/EC50” value is over 10 µM, the “Hela CellCycMod PI MI IC50/EC50” value is reported as over 10 µM and the “Hela CellCycMod PI Cell Number IC50/EC50” value is given as over 10 µM. Besides, the “Basal_Viability ATP DLD-1 IC50/EC50” value in the assay on DLD-1 was over 20 µM. Further, in the assay on SW480, the “Basal_Viability ATP SW480 IC50/EC50” value turned out to be 0.001 µM. Further, the “Basal_Viability ATP HCT116 IC50/EC50” value with HCT116 is on record as 0.00424 µM. Moreover, the “GSK3b inh pretreated_Viability ATP HCT116 IC50/EC50” value in assay [4] is recorded as 0.0023 µM. Further, the “Basal_Viability ATP Colo 320 IC50/EC50” value in the assay with Colo320 was over 20 µM. Moreover, the “Basal_Viability ATP HT-29 IC50/EC50” value in the assay with HT-29 was over 20 µM. Also, the “Basal_Viability ATP RKO IC50/EC50” value with RKO is 0.00288 µM. Moreover, the “Basal_Viability ATP SNU-C1 IC50/EC50” value with SNU-C1 is over 20 µM. Besides, on hp70S6K1 (RPS6KB1), the “hp70S6K1 LANCE IC50/EC50” value is listed as over 20 µM. Further, on hKDR, the “hKDR LANCE IC50/EC50” value is reported as over 20 µM. At hJAK2, the “hJAK2 LANCE IC50/EC50” value is over 20 µM. Besides, the “hGSK3b LANCE IC50/EC50” value at hGSK3b is reported as 3.99 µM. In addition, the “hFLT3 LANCE IC50/EC50” value on hFLT3 is on record as over 20 µM. In [5], the “VEGF_ADSC\ECFC Angio Hoechst NucArea IC50/EC50” value was over 10 µM.

For the molecule `Cc1ccc2nc(N)[nH]c(=O)c2c1Sc1ccncc1.Cl.Cl` [NCGC00263580-01], the “VEGF_ADSC\ECFC Angio CD31 TubeArea IC50/EC50” value in assay [1] is on record as 7.3662 µM. In assay [2], the “WntCondMedia_bCatenin C2C12 IC50/EC50” value is on record as 0.7099 µM. The “WntCondMedia_Alk Phos C2C12 IC50/EC50” value in assay [3] stood at 0.2444 µM. Also, in the assay on HeLa cells, the “Hela CellCycMod PI 2N IC50/EC50” value is over 10 µM, the “Hela CellCycMod PI S Phase IC50/EC50” value is given as over 10 µM, the “Hela CellCycMod PI 4N IC50/EC50” value is recorded as over 10 µM and the “Hela CellCycMod PI MI IC50/EC50” value is given as over 10 µM. Also, the “Hela CellCycMod PI Cell Number IC50/EC50” value in the assay with HeLa cells was over 10 µM. The “Basal_Viability ATP DLD-1 IC50/EC50” value in the assay on DLD-1 is over 20 µM. In addition, in the assay with SW480, the “Basal_Viability ATP SW480 IC50/EC50” value amounted to 2.241 µM. Besides, in the assay on HCT116, the “Basal_Viability ATP HCT116 IC50/EC50” value is 3.495 µM. For the same molecule, the “GSK3b inh pretreated_Viability ATP HCT116 IC50/EC50” value in [4] worked out at 0.8299 µM. The “Basal_Viability ATP Colo 320 IC50/EC50” value in the assay on Colo320 is given as over 20 µM. Besides, the “Basal_Viability ATP HT-29 IC50/EC50” value with HT-29 came out at 4.747 µM. Moreover, the “Basal_Viability ATP RKO IC50/EC50” value with RKO is on record as 0.3429 µM. Moreover, the “Basal_Viability ATP SNU-C1 IC50/EC50” value in the assay with SNU-C1 is over 20 µM. Further, the “hp70S6K1 LANCE IC50/EC50” value at hp70S6K1 (RPS6KB1) is given as 17.8 µM. The “hKDR LANCE IC50/EC50” value on hKDR is over 20 µM. Moreover, the “hJAK2 LANCE IC50/EC50” value at hJAK2 is listed as over 20 µM. Besides, the “hGSK3b LANCE IC50/EC50” value on hGSK3b is on record as over 20 µM. The “hFLT3 LANCE IC50/EC50” value on hFLT3 is over 20 µM. In addition, the “VEGF_ADSC\ECFC Angio Hoechst NucArea IC50/EC50” value in assay [5] is over 10 µM.
